{
  "source": "paper PMC9011347",
  "about": "“Small-Molecule Inhibitors Targeting Lipolysis in Human Adipocytes” (Journal of the American Chemical Society, 2022)",
  "system": "HepG2 cells",
  "test": "LDH-based cytotoxicity assay",
  "assay_type": "cell-based, human",
  "settings": "24 h, up to a concentration of 100 μM",
  "protocol": "Figure 2 Development and characterization of the human ATGL inhibitor NG-497. (a) Structure and IC50 values of human ATGL inhibitors. (b) Dose-dependent inhibition of human ATGL by respective inhibitors. (c) ATGL activity was determined at the indicated substrate concentrations in the absence and presence of NG-497 (0.5 μM). Ki was determined by nonlinear regression analysis using GraphPad Prism. Lineweaver–Burk analysis of ATGL inhibition is shown in the inset. (d) Toxicity of NG-497 in HepG2 cells was determined after 24 h incubation at indicated concentrations. Cisplatin and DMSO were used as positive and negative controls, respectively. Cytotoxicity was determined using the Roche LDH Kit and calculated as relative LDH release compared to fully lysed cells. (e) Stability of NG-497 was analyzed via ultrahigh-performance liquid chromatography–mass spectrometry (UHPLC-MS) after incubation in human serum for 0 or 3 h at 37 °C. Atglistatin and a chemically related unstable compound were used as controls. […] NG-497 concentrations/well were determined at the indicated time points using UHPLC-MS. […] Statistical significance was determined via t test (*p < 0.05; **p < 0.01; ***p < 0.001) or ANOVA followed by Bonferroni post hoc test (^###p < 0.001). […] The detected 297 lipid species of both groups were analyzed with supervised multivariate analysis OPLS-DA and are shown as a loading plot. […]",
  "data": [
    {"smiles": "CCOc1ccc(-c2cc(OC)cc(C(=O)OC(C)C)n2)cc1", "note": "[NG-497]", "values": [
      {"measurement": "cytotoxicity (relative LDH release)", "value": "no toxic effects"}
    ]}
  ]
}
